According to ChEMBL document CHEMBL5126517, “Structure-Activity Relationship in the Leucettine Family of Kinase Inhibitors” (J Med Chem, 2022):

Target: Dual specificity tyrosine-phosphorylation-regulated kinase 1B (Homo sapiens, UniProt Q9Y463)
Conditions: not given

Chain of Dual specificity tyrosine-phosphorylation-regulated kinase 1B (Q9Y463 whole entry): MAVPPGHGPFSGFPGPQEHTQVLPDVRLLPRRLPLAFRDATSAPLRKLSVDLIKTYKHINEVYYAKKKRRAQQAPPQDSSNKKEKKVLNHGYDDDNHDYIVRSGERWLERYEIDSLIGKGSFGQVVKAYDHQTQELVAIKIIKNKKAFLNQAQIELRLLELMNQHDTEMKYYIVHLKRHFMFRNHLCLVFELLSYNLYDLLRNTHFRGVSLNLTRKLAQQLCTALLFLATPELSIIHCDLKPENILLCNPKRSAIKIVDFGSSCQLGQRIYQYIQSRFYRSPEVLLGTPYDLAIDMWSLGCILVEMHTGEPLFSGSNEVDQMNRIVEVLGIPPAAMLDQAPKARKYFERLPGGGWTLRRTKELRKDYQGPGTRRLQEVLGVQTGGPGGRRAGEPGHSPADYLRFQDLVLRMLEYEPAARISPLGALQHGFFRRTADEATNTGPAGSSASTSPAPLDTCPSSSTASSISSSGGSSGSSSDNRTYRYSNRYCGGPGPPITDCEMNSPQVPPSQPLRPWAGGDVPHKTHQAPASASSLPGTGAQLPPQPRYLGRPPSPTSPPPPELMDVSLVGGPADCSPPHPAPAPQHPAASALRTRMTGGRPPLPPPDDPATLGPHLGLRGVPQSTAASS

SMILES	IC50 [nM]
CCNC1=N/C(=C\c2ccc3c(c2)OCO3)C(=O)N1	480
CNC1=N/C(=C\c2ccc3c(c2)OCO3)C(=O)N1	500
CCSC1=N/C(=C\c2ccc3c(c2)OCO3)C(=O)N1	72

Target: T1, Dual specificity tyrosine-phosphorylation-regulated kinase 1A (Homo sapiens, UniProt Q13627)
Experiment: Inhibition of DYRK1A in human SH-SY5Y overexpressing Tau4R cells assessed as phosphorylated Tau Thr212 residue level at 10 uM incubated for 6 hrs by western blot analysis relative to control
Format: cell-based
Conditions: not given

SMILES	inhibition [%]
CCNC1=N/C(=C\c2ccc3c(c2)OCO3)C(=O)N1	-6

Target: Cannabinoid receptor 1 (Homo sapiens, UniProt P21554)
Sequence (P21554 whole entry): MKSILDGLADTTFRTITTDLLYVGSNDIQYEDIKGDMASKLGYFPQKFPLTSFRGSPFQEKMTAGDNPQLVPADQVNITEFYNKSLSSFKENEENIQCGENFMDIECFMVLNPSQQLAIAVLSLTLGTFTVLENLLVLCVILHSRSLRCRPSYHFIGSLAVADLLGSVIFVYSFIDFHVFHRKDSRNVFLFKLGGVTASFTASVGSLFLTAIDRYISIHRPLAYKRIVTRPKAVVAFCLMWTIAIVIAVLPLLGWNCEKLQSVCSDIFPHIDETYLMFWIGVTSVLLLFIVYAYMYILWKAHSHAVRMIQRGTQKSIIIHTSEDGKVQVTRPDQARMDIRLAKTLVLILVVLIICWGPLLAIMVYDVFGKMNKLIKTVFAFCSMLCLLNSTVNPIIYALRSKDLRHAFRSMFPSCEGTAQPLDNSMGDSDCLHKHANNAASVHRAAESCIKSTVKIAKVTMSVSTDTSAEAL
Experiment: Antagonist activity at CP-55940-activated CB1 receptor (unknown origin) at 10 uM by beta-arrestin assay relative to control
Format: functional
Set-up: scale not given: the % may be the effect or the level left
Conditions: not given

SMILES	Activity [%]
CCNC1=N/C(=C\c2ccc3c(c2)OCO3)C(=O)N1	-40.4
CNC1=N/C(=C\c2ccc3c(c2)OCO3)C(=O)N1	-14.7
CCSC1=N/C(=C\c2ccc3c(c2)OCO3)C(=O)N1	-7.5

Target: T1, Dual specificity tyrosine-phosphorylation-regulated kinase 1A
Experiment: Inhibition of GST-fused human recombinant DYRK1A expressed in Escherichia coli using GRSRSRSRSRSR peptide as substrate incubated for 30 mins in presence of ATP by scintillation counting method
Conditions: not given

SMILES	IC50 [nM]
CCNC1=N/C(=C\c2ccc3c(c2)OCO3)C(=O)N1	140
CNC1=N/C(=C\c2ccc3c(c2)OCO3)C(=O)N1	160
CCSC1=N/C(=C\c2ccc3c(c2)OCO3)C(=O)N1	33

Tested on: not listed separately
Experiment: Neurotoxicity against mouse HT-22 cells assessed as cell survival treated for 24 hrs by MTS assay
Format: toxicity, cell-based
Conditions: not given

SMILES	EC50 at 24 h [nM]
CNC1=N/C(=C\c2ccc3c(c2)OCO3)C(=O)N1	> 20000
CCSC1=N/C(=C\c2ccc3c(c2)OCO3)C(=O)N1	> 20000

Target: Dual specificity protein kinase CLK3 (Mus musculus, UniProt O35492)
Sequence (O35492 whole entry, the tested form may be a part): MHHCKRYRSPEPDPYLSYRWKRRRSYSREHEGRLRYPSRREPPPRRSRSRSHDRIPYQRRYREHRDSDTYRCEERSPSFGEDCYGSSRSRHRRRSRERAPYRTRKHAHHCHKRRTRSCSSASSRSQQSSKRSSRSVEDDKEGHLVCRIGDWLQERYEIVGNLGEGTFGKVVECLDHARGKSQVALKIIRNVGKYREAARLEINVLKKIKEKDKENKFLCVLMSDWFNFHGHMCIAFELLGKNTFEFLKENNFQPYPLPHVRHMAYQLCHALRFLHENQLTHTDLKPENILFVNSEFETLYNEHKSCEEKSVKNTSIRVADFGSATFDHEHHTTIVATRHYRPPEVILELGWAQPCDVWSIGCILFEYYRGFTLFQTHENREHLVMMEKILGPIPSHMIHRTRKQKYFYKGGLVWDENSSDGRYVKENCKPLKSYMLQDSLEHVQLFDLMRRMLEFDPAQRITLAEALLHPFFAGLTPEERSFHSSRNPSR
Experiment: Inhibition of GST-fused mouse recombinant CLK3 expressed in Escherichia coli using GRSRSRSRSRSR peptide as substrate incubated for 30 mins in presence of ATP by scintillation counting method
Conditions: not given

SMILES	IC50 [nM]
CCNC1=N/C(=C\c2ccc3c(c2)OCO3)C(=O)N1	2300
CNC1=N/C(=C\c2ccc3c(c2)OCO3)C(=O)N1	1200
CCSC1=N/C(=C\c2ccc3c(c2)OCO3)C(=O)N1	1400

Target: Dual specificity protein kinase CLK1 (Mus musculus, UniProt P22518)
Sequence (P22518 whole entry, the tested form may be a part): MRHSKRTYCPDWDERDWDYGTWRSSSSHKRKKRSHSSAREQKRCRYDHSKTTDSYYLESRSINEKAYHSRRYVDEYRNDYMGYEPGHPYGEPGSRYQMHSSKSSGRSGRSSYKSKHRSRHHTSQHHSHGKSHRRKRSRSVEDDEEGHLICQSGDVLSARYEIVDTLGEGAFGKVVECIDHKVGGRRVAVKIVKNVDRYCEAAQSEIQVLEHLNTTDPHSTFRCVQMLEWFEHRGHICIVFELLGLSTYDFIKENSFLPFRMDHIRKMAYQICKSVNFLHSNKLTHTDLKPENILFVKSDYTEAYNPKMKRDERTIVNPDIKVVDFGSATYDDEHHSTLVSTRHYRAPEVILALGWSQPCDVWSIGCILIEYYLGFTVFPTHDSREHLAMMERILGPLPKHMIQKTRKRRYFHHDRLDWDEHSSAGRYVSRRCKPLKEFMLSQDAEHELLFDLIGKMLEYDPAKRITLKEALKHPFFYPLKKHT
Experiment: Inhibition of GST-fused mouse recombinant CLK1 expressed in Escherichia coli using GRSRSRSRSRSR peptide as substrate incubated for 30 mins in presence of ATP by scintillation counting method
Conditions: not given

SMILES	IC50 [nM]
CCNC1=N/C(=C\c2ccc3c(c2)OCO3)C(=O)N1	65
CNC1=N/C(=C\c2ccc3c(c2)OCO3)C(=O)N1	140
CCSC1=N/C(=C\c2ccc3c(c2)OCO3)C(=O)N1	29

Target: Dual specificity protein kinase CLK4 (Mus musculus, UniProt O35493)
Sequence (O35493 whole entry, the tested form may be a part): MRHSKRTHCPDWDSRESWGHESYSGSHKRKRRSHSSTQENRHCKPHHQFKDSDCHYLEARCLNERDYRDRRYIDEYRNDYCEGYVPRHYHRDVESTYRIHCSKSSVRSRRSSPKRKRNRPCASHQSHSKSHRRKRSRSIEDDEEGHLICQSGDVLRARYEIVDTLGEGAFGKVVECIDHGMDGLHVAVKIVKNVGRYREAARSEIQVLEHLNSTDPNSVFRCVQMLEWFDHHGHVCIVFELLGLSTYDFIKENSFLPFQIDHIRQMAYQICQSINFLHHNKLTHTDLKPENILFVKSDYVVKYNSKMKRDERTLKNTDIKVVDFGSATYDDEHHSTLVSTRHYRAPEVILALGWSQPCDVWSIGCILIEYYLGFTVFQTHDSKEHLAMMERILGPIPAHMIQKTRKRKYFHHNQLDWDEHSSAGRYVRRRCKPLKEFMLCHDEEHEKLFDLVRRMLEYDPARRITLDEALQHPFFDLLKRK
Experiment: Inhibition of GST-fused mouse recombinant CLK4 expressed in Escherichia coli using GRSRSRSRSRSR peptide as substrate incubated for 30 mins in presence of ATP by scintillation counting method
Conditions: not given

SMILES	IC50 [nM]
CCNC1=N/C(=C\c2ccc3c(c2)OCO3)C(=O)N1	60
CNC1=N/C(=C\c2ccc3c(c2)OCO3)C(=O)N1	94
CCSC1=N/C(=C\c2ccc3c(c2)OCO3)C(=O)N1	23

Tested on: not listed separately
Experiment: Neurotoxicity against mouse HT-22 cells assessed as cell survival at 20 uM treated for 24 hrs by MTS assay
Format: toxicity, cell-based
Conditions: ht-22, 24 h

SMILES	Activity
CCNC1=N/C(=C\c2ccc3c(c2)OCO3)C(=O)N1	Non-Toxic
CNC1=N/C(=C\c2ccc3c(c2)OCO3)C(=O)N1	Non-Toxic
CCSC1=N/C(=C\c2ccc3c(c2)OCO3)C(=O)N1	Non-Toxic

Target: Glycogen synthase kinase-3 (Sus scrofa, UniProt B2LUN4+I6LNT8)
Experiment: Inhibition of porcine brain GSK-3alpha/beta using YRRAAVPPSPSLSRHSSPHQpSEDEEE as substrate incubated for 30 mins in presence of ATP by scintillation counting method
Format: tissue-based
Conditions: not given

SMILES	IC50 [nM]
CCNC1=N/C(=C\c2ccc3c(c2)OCO3)C(=O)N1	2400
CNC1=N/C(=C\c2ccc3c(c2)OCO3)C(=O)N1	6200
CCSC1=N/C(=C\c2ccc3c(c2)OCO3)C(=O)N1	900

Target: Dual specificity protein kinase CLK2 (Mus musculus, UniProt O35491)
Sequence (O35491 whole entry, the tested form may be a part): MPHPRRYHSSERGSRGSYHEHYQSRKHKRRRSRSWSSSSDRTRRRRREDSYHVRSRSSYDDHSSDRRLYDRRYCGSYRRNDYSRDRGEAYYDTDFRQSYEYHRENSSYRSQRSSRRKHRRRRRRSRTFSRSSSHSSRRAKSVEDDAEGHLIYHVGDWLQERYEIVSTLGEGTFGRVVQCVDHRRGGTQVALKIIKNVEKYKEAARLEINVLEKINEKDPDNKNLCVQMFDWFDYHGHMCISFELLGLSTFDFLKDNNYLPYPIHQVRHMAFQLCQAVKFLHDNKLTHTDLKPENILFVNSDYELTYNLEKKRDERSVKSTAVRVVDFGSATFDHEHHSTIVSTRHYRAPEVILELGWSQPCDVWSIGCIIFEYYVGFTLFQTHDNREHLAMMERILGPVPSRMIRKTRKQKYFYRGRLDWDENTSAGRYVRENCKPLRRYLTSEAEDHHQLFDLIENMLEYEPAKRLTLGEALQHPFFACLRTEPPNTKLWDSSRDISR
Experiment: Inhibition of mouse recombinant GST-fused CLK2 expressed in Escherichia coli using GRSRSRSRSRSR peptide as substrate incubated for 30 mins in presence of ATP by scintillation counting method
Conditions: not given

SMILES	IC50 [nM]
CCNC1=N/C(=C\c2ccc3c(c2)OCO3)C(=O)N1	380
CNC1=N/C(=C\c2ccc3c(c2)OCO3)C(=O)N1	530
CCSC1=N/C(=C\c2ccc3c(c2)OCO3)C(=O)N1	120

Target: T2, Dual specificity tyrosine-phosphorylation-regulated kinase 3 (Homo sapiens, UniProt O43781)
T2 sequence (O43781 whole entry): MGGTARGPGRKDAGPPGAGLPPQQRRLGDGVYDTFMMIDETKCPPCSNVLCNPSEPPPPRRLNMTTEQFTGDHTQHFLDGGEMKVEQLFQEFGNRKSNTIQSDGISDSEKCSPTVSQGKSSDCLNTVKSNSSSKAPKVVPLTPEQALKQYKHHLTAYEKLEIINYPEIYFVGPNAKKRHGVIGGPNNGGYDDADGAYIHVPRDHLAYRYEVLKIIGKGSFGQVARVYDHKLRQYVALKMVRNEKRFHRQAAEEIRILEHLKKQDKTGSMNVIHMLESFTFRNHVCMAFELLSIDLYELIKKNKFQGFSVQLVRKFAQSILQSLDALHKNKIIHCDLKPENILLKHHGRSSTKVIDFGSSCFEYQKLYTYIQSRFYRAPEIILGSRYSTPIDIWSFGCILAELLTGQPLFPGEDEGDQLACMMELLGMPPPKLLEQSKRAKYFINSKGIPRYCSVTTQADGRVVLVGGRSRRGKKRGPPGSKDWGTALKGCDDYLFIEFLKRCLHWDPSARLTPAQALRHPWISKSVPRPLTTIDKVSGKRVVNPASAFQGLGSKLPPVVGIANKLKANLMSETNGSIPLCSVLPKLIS
Experiment: Inhibition of GST-fused human recombinant DYRK3 expressed in Escherichia coli using GRSRSRSRSRSR peptide as substrate incubated for 30 mins in presence of ATP by scintillation counting method
Conditions: not given

SMILES	IC50 [nM]
CCNC1=N/C(=C\c2ccc3c(c2)OCO3)C(=O)N1	470
CNC1=N/C(=C\c2ccc3c(c2)OCO3)C(=O)N1	480
CCSC1=N/C(=C\c2ccc3c(c2)OCO3)C(=O)N1	160

Target: Casein kinase 2 (Homo sapiens, UniProt P67870+P68400+P19784+Q8NEV1)
Experiment: Inhibition of human recombinant CK2 using RRRDDDSDDD peptide as substrate incubated for 30 mins in presence of ATP by scintillation counting method
Format: protein assay
Conditions: not given

SMILES	IC50 [nM]
CCNC1=N/C(=C\c2ccc3c(c2)OCO3)C(=O)N1	410
CNC1=N/C(=C\c2ccc3c(c2)OCO3)C(=O)N1	1800
CCSC1=N/C(=C\c2ccc3c(c2)OCO3)C(=O)N1	600

Tested on: U2OS
Experiment: Induction of PI3K/mTor-dependent autophagy in human U2OS cells assessed as number of LC3 foci per cell at 10 uM measured after 4 hrs
Format: cell-based
Conditions: filed as activator

SMILES	Activity
CCNC1=N/C(=C\c2ccc3c(c2)OCO3)C(=O)N1	5.6
CNC1=N/C(=C\c2ccc3c(c2)OCO3)C(=O)N1	4.9
CCSC1=N/C(=C\c2ccc3c(c2)OCO3)C(=O)N1	5.5

Tested on: HT-22
Experiment: Modulation of CLK1 pre-mRNA splicing in mouse HT-22 cells assessed as inclusion of CLK1 exon 4 by measuring change in threshold cycle at 10 uM measured after 4 hrs by real time PCR analysis
Format: cell-based
Conditions: filed as modulator

SMILES	deltaCT
CCNC1=N/C(=C\c2ccc3c(c2)OCO3)C(=O)N1	2.64
CNC1=N/C(=C\c2ccc3c(c2)OCO3)C(=O)N1	1
CCSC1=N/C(=C\c2ccc3c(c2)OCO3)C(=O)N1	0.57

Target: Serine/threonine-protein kinase pim-1 (Homo sapiens, UniProt P11309)
Sequence (P11309 whole entry): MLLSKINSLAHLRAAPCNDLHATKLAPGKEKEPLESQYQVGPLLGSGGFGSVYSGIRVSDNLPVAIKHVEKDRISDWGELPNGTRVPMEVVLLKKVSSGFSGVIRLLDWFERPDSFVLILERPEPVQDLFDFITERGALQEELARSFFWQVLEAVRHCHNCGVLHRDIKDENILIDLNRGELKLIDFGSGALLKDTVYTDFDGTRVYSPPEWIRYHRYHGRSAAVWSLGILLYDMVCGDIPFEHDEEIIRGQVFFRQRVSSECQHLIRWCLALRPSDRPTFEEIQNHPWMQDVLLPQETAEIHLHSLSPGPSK
Experiment: Inhibition of human recombinant Pim1 expressed in Escherichia coli using histone H1 as substrate incubated for 30 mins in presence of ATP by scintillation counting method
Conditions: not given

SMILES	IC50 [nM]
CCNC1=N/C(=C\c2ccc3c(c2)OCO3)C(=O)N1	1200
CNC1=N/C(=C\c2ccc3c(c2)OCO3)C(=O)N1	1200
CCSC1=N/C(=C\c2ccc3c(c2)OCO3)C(=O)N1	340

Target: T3, Dual specificity tyrosine-phosphorylation-regulated kinase 2 (Homo sapiens, UniProt Q92630)
T3 sequence (Q92630 whole entry): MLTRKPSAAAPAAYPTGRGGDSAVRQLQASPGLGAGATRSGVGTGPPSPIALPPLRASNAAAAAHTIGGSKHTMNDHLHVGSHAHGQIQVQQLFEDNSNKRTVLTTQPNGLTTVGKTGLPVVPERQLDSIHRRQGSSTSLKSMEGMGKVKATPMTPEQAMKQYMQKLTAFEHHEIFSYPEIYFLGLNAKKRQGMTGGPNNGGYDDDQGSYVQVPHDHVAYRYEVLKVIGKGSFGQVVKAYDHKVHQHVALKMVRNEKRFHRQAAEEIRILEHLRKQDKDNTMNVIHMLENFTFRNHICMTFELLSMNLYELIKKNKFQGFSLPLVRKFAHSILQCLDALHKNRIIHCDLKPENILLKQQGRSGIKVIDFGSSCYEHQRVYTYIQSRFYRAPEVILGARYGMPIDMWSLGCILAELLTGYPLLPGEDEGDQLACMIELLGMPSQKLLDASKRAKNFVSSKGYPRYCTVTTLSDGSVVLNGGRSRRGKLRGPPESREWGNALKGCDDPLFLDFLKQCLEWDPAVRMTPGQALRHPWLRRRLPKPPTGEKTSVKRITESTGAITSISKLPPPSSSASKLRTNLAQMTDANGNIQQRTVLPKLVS
Experiment: Inhibition of GST-fused human recombinant DYRK2 expressed in Escherichia coli using GRSRSRSRSRSR peptide as substrate incubated for 30 mins in presence of ATP by scintillation counting method
Conditions: not given

SMILES	IC50 [nM]
CCNC1=N/C(=C\c2ccc3c(c2)OCO3)C(=O)N1	190
CNC1=N/C(=C\c2ccc3c(c2)OCO3)C(=O)N1	130
CCSC1=N/C(=C\c2ccc3c(c2)OCO3)C(=O)N1	32
